Laboratory results published in patent US10017501B2, “Benzimidazole derivatives as bromodomain inhibitors” (Gilead Sciences, Inc., priority 2013, dated 2018).

What follows are molecules tested on MT-4 cells (assay: MT-4 proliferation assay). Conditions: Homo sapiens, MT4, 120 h, read-out: MT4 Assay (EC50, nM).
Format: cell-based, human
Description: MT-4 Proliferation Assay:
Compounds were tested in a standardized high-throughput 384-well assay format. Each compound was serially diluted 3-fold in 100% DMSO in polypropylene 384-well plates using a Biomek FX Workstation, and 0.4 μL compound added to an assay plate containing 40 μL RPMI media. Compounds were arranged in a horizontal pattern, with 10 concentrations per compound, and 8 compounds added per plate. Due to low DMSO tolerability, the final DMSO concentration never exceeded 0.5% (v/v). Each assay plate contained 10 μM Puromycin and 0.5% DMSO in RPMI-1640 as positive and negative controls respectively. MT-4 cells (HTLV-1 transformed, human T lymphoblastoid cells, NIH Aids Reagent program) were added in volumes of 35 μL per well and 2,000 cells per well using a Biotek uFlow Workstation (Biotek, Winooski, Vt.), and the plates subsequently incubated for 5 days at 37° C. in an incubator set at 5% CO2 and 90% humidity.
After 5 days, 22 μL Cell Titer Glo (Promega) was added to the assay plates with a Biotek uFlow Workstation. Plates were subsequently placed on a Perkin Elmer Envision Plate Reader for 5 minutes before the luminescence signal was read.

`Cc1noc(C)c1-c1cc(S(=O)(=O)NC2CCCC2)c2nc([S+](C)[O-])[nH]c2c1` (stereo not shown) [Compound 1020-5, N-Cyclopentyl-6-(3,5-dimethylisoxazol-4-yl)-2-(methylsulfinyl)-1H-benzo[d]imidazole-4-sulfonamide] gave an EC50 of 329 nM.

Same assay, conditions: Homo sapiens, MT4, 120 h; Table 1; 5 days, Cell Titer Glo; read-out: MT4 Assay (EC50)

Point of comparison: `Cc1ccc2ncccc2c1-c1cc(-c2c(C)noc2C)cc2[nH]c(-c3cnn(C)c3)nc12` [Compound 1020-88, 3,5-Dimethyl-4-(2-(1-methyl-1H-pyrazol-4-yl)-4-(6-methylquinolin-5-yl)-1H-benzo[d]imidazol-6-yl)isoxazole], EC50 45.2 nM. Against it:
- Cc1ccnc(C)c1-c1cc(-c2c(C)noc2C)cc2nc(C3CC3)[nH]c12 [Compound 1020-57, 4-(2-Cyclopropyl-7-(2,4-dimethylpyridin-3-yl)-1H-benzo[d]imidazol-5-yl)-3,5-dimethylisoxazole] — 3.3-fold lower, 13.6 nM
- Cc1n[nH]c(C)c1-c1cc(-c2c(C)noc2C)cc2[nH]c(NC3CC3)nc12 [Compound 1020-81, N-Cyclopropyl-4-(3,5-dimethyl-1H-pyrazol-4-yl)-6-(3,5-dimethylisoxazol-4-yl)-1H-benzo[d]imidazol-2-amine] — 5.9-fold lower, 7.6 nM
- CCC(O)(CC)c1cc(-c2c(C)noc2C)cc2c1nc(C1CC1)n2C [Compound 1020-132, 3-(2-Cyclopropyl-6-(3,5-dimethylisoxazol-4-yl)-1-methyl-1H-benzo[d]imidazol-4-yl)pentan-3-ol] — 12-fold higher, 544 nM
- Cc1noc(C)c1-c1cc(N2C(=O)CCC2C)c2nc(C3CC3)[nH]c2c1 (stereo not shown) [Compound 1020-136, 1-(2-Cyclopropyl-6-(3,5-dimethylisoxazol-4-yl)-1H-benzo[d]imidazol-4-yl)-5-methylpyrrolidin-2-one] — 7.4-fold higher, 335 nM
- Cc1noc(C)c1-c1cc(-c2cccnc2-c2ccccc2)c2nc(C3CC3)[nH]c2c1 [Compound 1020-19, 4-(2-Cyclopropyl-4-(2-phenylpyridin-3-yl)-1H-benzo[d]imidazol-6-yl)-3,5-dimethylisoxazole] — 1.9-fold lower, 24.4 nM
- Cc1ccc2ncccc2c1-c1cc(-c2c(C)noc2C)cc2nc(C3CC3)n(C)c12 [Compound 1020-74, 4-(2-Cyclopropyl-1-methyl-7-(6-methylquinolin-5-yl)-1H-benzo[d]imidazol-5-yl)-3,5-dimethylisoxazole] — 3-fold lower, 15.3 nM
- Cc1ccnc(C)c1-c1cc(-c2c(C)noc2C)cc2[nH]cnc12 [Compound 1020-84, 4-(4-(2,4-Dimethylpyridin-3-yl)-1H-benzo[d]imidazol-6-yl)-3,5-dimethylisoxazole] — 5.2-fold higher, 236 nM
- Cc1n[nH]c(C)c1-c1cc(-c2c(C)noc2C)cc2nc(C3CC3)n(C)c12 [Compound 1020-72, 4-(2-cyclopropyl-7-(3,5-dimethyl-1H-pyrazol-4-yl)-1-methyl-1H-benzo[d]imidazol-5-yl)-3,5-dimethylisoxazole] — 7-fold lower, 6.5 nM
- Cc1n[nH]c(C)c1-c1cc(-c2c(C)noc2C)cc2nc(N)[nH]c12 [Compound 1020-96, 4-(3,5-Dimethyl-1H-pyrazol-4-yl)-6-(3,5-dimethylisoxazol-4-yl)-1H-benzo[d]imidazol-2-amine] — 7-fold higher, 318 nM
- Cc1noc(C)c1-c1cc(NC2CCCC2)c2nc(C3CC3)[nH]c2c1 [Compound 1020-50, N-Cyclopentyl-2-cyclopropyl-6-(3,5-dimethylisoxazol-4-yl)-1H-benzo[d]imidazol-4-amine] — 7.8-fold higher, 353 nM
- Cc1n[nH]c(C)c1-c1cc(-c2c(C)noc2C)cc2[nH]c(C3CCC3)nc12 [Compound 1020-75, 4-(2-Cyclobutyl-4-(3,5-dimethyl-1H-pyrazol-4-yl)-1H-benzo[d]imidazol-6-yl)-3,5-dimethylisoxazole] — 2.5-fold lower, 18.4 nM
- Cc1ccc2ncccc2c1-c1cc(-c2c(C)noc2C)cc2[nH]c(C(F)(F)F)nc12 [Compound 1020-92, 3,5-Dimethyl-4-(4-(6-methylquinolin-5-yl)-2-(trifluoromethyl)-1H-benzo[d]imidazol-6-yl)isoxazole] — 1.6-fold higher, 73.1 nM
- Cc1n[nH]c(C)c1-c1cc(-c2c(C)noc2C)cc2nc(C3CC3(F)F)[nH]c12 (stereo not shown) [Compound 1020-78, 4-(2-(2,2-Difluorocyclopropyl)-7-(3,5-dimethyl-1H-pyrazol-4-yl)-1H-benzo[d]imidazol-5-yl)-3,5-dimethylisoxazole] — 1.8-fold lower, 25.7 nM
- Cc1noc(C)c1-c1cc(S(=O)(=O)NC2CCCC2)c2nc(NCC(F)(F)F)[nH]c2c1 [Compound 1020-148, N-Cyclopentyl-6-(3,5-dimethylisoxazol-4-yl)-2-(2,2,2-trifluoroethylamino)-1H-benzo[d]imidazole-4-sulfonamide] — 11-fold higher, 495 nM
- Cc1nc2cc(-c3c(C)noc3C)cc(-c3c(C)n[nH]c3C)c2[nH]1 [Compound 1020-77, 4-(7-(3,5-Dimethyl-1H-pyrazol-4-yl)-2-methyl-1H-benzo[d]imidazol-5-yl)-3,5-dimethylisoxazole] — within 1.5-fold, 39.4 nM
- CCC(CC)c1cc(-c2c(C)noc2C)cc2[nH]c(C3CC3)nc12 [Compound 1020-120, 4-(2-Cyclopropyl-4-(pentan-3-yl)-1H-benzo[d]imidazol-6-yl)-3,5-dimethylisoxazole] — within 1.5-fold, 48.8 nM
- Cc1cnn(C)c1-c1cc(-c2c(C)noc2C)cc2nc(C3CC3)[nH]c12 [Compound 1020-12, 4-(2-Cyclopropyl-7-(1,4-dimethyl-1H-pyrazol-5-yl)-1H-benzo[d]imidazol-5-yl)-3,5-dimethylisoxazole] — 2.1-fold lower, 21.3 nM
- CC/C=C(\CC)c1cc(-c2c(C)noc2C)cc2nc(C3CC3)[nH]c12 [Compound 1020-28, (E)-4-(2-Cyclopropyl-4-(hex-3-en-3-yl)-1H-benzo[d]imidazol-6-yl)-3,5-dimethylisoxazole] — within 1.5-fold, 51.6 nM
- Cc1noc(C)c1-c1cc(S(=O)(=O)NC2CCCC2)c2nc(NCC3CC3)[nH]c2c1 [Compound 1020-1, N-Cyclopentyl-2-(cyclopropylmethylamino)-6-(3,5-dimethylisoxazol-4-yl)-1H-benzo[d]imidazole-4-sulfonamide] — 4.3-fold higher, 193 nM
- CCC1CCC(=O)N1c1cc(-c2c(C)noc2C)cc2[nH]c(C3CC3)nc12 (stereo not shown) [Compound 1020-137, 1-(2-Cyclopropyl-6-(3,5-dimethylisoxazol-4-yl)-1H-benzo[d]imidazol-4-yl)-5-ethylpyrrolidin-2-one] — 2.5-fold higher, 113 nM
- Cc1n[nH]c(C)c1-c1cc(-c2c(C)noc2C)cc2[nH]c(NCC3CC3)nc12 [Compound 1020-79, N-(Cyclopropylmethyl)-4-(3,5-dimethyl-1H-pyrazol-4-yl)-6-(3,5-dimethylisoxazol-4-yl)-1H-benzo[d]imidazol-2-amine] — within 1.5-fold, 33.8 nM
- COc1nc2c(-c3c(C)ccc4ncccc34)cc(-c3c(C)noc3C)cc2[nH]1 [Compound 1020-90, 4-(2-methoxy-4-(6-methylquinolin-5-yl)-1H-benzo[d]imidazol-6-yl)-3,5-dimethylisoxazole] — 1.8-fold lower, 25 nM
- CSc1nc2c(S(=O)(=O)NC3CCCC3)cc(-c3c(C)noc3C)cc2[nH]1 [Compound 1020-4, N-Cyclopentyl-6-(3,5-dimethylisoxazol-4-yl)-2-(methylthio)-1H-benzo[d]imidazole-4-sulfonamide] — 4.2-fold higher, 192 nM
- Cc1noc(C)c1-c1cc(C(C)c2ccc(F)cc2)c2[nH]c(C3CC3)nc2c1 (stereo not shown) [Compound 1020-44, 4-(2-Cyclopropyl-4-(1-(4-fluorophenyl)ethyl)-1H-benzo[d]imidazol-6-yl)-3,5-dimethylisoxazole] — 1.9-fold higher, 86.1 nM
- Cc1ccc2ncccc2c1-c1cc(-c2c(C)noc2C)cc2[nH]c(C(O)CCO)nc12 (stereo not shown) [Compound 1020-89, 1-(6-(3,5-dimethylisoxazol-4-yl)-4-(6-methylquinolin-5-yl)-1H-benzo[d]imidazol-2-yl)propane-1,3-diol] — 2.3-fold higher, 104 nM
- Cc1noc(C)c1-c1cc(C(O)C2CCCC2)c2nc(C3CC3)[nH]c2c1 (stereo not shown) [Compound 1020-121, Cyclopentyl(2-cyclopropyl-6-(3,5-dimethylisoxazol-4-yl)-1H-benzo[d]imidazol-4-yl)methanol] — within 1.5-fold, 42.8 nM
- Cc1noc(C)c1-c1cc(/C=C/c2ccccc2)c2[nH]c(C3CC3)nc2c1 [Compound 1020-37, (E)-4-(2-cyclopropyl-4-styryl-1H-benzo[d]imidazol-6-yl)-3,5-dimethylisoxazole] — 11-fold higher, 518 nM
- Cc1noc(C)c1-c1cc(S(=O)(=O)NC2CCCC2)c2nc(Cc3ccccc3)[nH]c2c1 [Compound 1020-141, 2-Benzyl-N-cyclopentyl-6-(3,5-dimethylisoxazol-4-yl)-1H-benzo[d]imidazole-4-sulfonamide] — 20-fold higher, 887 nM
- Cc1noc(C)c1-c1cc(C(O)(c2ccccc2)c2ccccc2)c2nc(C3CC3)[nH]c2c1 [Compound 1020-102, (2-Cyclopropyl-6-(3,5-dimethylisoxazol-4-yl)-1H-benzo[d]imidazol-4-yl)diphenylmethanol] — within 1.5-fold, 49.7 nM
